Assays:
Podded pea = details: 500 ml per stock sprayed on foliage, aboveground part 72 hours after spraying; Non-treating Section = 100
Procedure: (§1) Above plants in the age of 5-6 blades were employed for the test. […] The application for MG3 and M1 was executed in the form of spraying on the foliage by 500 ml per stock. The analysis of phytoalexins were carried out by sampling the aboveground part of plants 72 hours after the spraying, extracting the samples with acetone followed by chromatographic elution with ethyl acetate through a silica gel, and finally analyzing on an HPLC instrument.

Soybean = details: 500 ml per stock sprayed on foliage, aboveground part 72 hours after spraying; Non-treating Section = 100
Procedure: as §1

Eggplant = details: 500 ml per stock sprayed on foliage, aboveground part 72 hours after spraying; Non-treating Section = 100
Procedure: as §1

Beat = details: 500 ml per stock sprayed on foliage, aboveground part 72 hours after spraying; Non-treating Section = 100
Procedure: as §1

Chinese cabbage = details: 500 ml per stock sprayed on foliage, aboveground part 72 hours after spraying; Non-treating Section = 100
Procedure: as §1

Tobacco = details: 500 ml per stock sprayed on foliage, aboveground part 72 hours after spraying; Non-treating Section = 100
Procedure: as §1

Carrot = details: 500 ml per stock sprayed on foliage, aboveground part 72 hours after spraying; Non-treating Section = 100
Procedure: as §1

Grape = details: 500 ml per stock sprayed on foliage, aboveground part 72 hours after spraying; Non-treating Section = 100
Procedure: as §1

Potato = details: 500 ml per stock sprayed on foliage, aboveground part 72 hours after spraying; Non-treating Section = 100
Procedure: as §1

rice plant “Nihonbare” [1] = assay: Test 1: production of Sakuranetin and Momilactone-A in wounded rice blades treated with DL-methionine/D-glucose solutions; type: in vivo; details: rice fifth blades, 25 μl test solution on 1 mm cuts, 60 hours at 25° C. under light; detected amount per cut
Procedure: The structural formula of Sakuranetin is shown in Formula 1, and of Momilactone-A in Formula 2. [drawing 1]
A control section was set up similarly except using 25 μl of distilled water only.
Unit: ng/spot (detected amount per cut)

[2] = tested on: rice blight (Pyricularia oryzae); type: in vivo; details: rice “Nihonbare”, 100 ml sprayed on foliage 24 hours before inoculation, measured ten days after inoculation; Control Section 25.1
Tomato = details: 500 ml per stock sprayed on foliage, aboveground part 72 hours after spraying; Non-treating Section = 100
Procedure: as §1

[3] = tested on: various pathogenic bacteria of plants including Pyricularia oryzae; details: antibacterial activity; stated as known, no test described; cited from earlier work
rice plant “Nihonbare” [4] = assay: Test 11: production of Sakuranetin and Momilactone-A in wounded rice blades treated with L-cysteine/D-glucose and comparative solutions; details: rice fifth blades, 25 μl test solution on 1 mm cuts, 60 hours at 25° C. under light

CSCCC(N)C(=O)O (racemic) [Section M1, DL-methionine]
Pisatin (Podded pea), produced amount per unit weight (Podded pea): 4,522 | Griceorin (Soybean), produced amount per unit weight (Soybean): 1,910 | Lubimin (Eggplant), produced amount per unit weight (Eggplant): 23,070 | Vetablugarin (Beat), produced amount per unit weight (Beat): 1,810 | Blacinin (Chinese cabbage), produced amount per unit weight (Chinese cabbage): 18,600 | Capsydiol (Tobacco), produced amount per unit weight (Tobacco): 1,907 | 6-Methoxymelain (Carrot), produced amount per unit weight (Carrot): 3,222 | α-Vinipherin (Grape), produced amount per unit weight (Grape): 962 | Ricitin (Potato), produced amount per unit weight (Potato): 590 | Amount of Momilactone-A (rice plant “Nihonbare” [1]): 55.89 ng/spot | Amount of Sakuranetin (rice plant “Nihonbare” [1]): 122.56 ng/spot | Necrosis Ratio = (necrosis area + decay area)/total area [2]: 7.8% | Ricitin (Tomato), produced amount per unit weight (Tomato): 10,039

C=C[C@]1(C)CC[C@@H]2C(=C[C@H]3OC(=O)[C@@]4(C)C(=O)CC[C@@]2(C)[C@@H]34)C1 [Momilactone-A]
ED50 [3]: 15 ppm

COc1cc(O)c2c(c1)O[C@H](c1ccc(O)cc1)CC2=O [Sakuranetin]
ED50 [3]: 15 ppm

N.N.O=S(=O)(O)O [Section AS1, Ammonium sulfate]
Amount of Momilactone-A (rice plant “Nihonbare” [4]): not detected | Amount of Sakuranetin (rice plant “Nihonbare” [4]): not detected

N[C@@H](CS)C(=O)O [Section C1, L-cysteine]
Amount of Momilactone-A (rice plant “Nihonbare” [4]): 38.99 ng/spot | Amount of Sakuranetin (rice plant “Nihonbare” [4]): 79.10 ng/spot

O=C[C@H](O)[C@@H](O)[C@H](O)[C@H](O)CO [Section GL1, D-glucose]
Amount of Momilactone-A (rice plant “Nihonbare” [4]): not detected | Amount of Sakuranetin (rice plant “Nihonbare” [4]): not detected

N[C@@H](CCC(=O)N[C@@H](CS)C(=O)NCC(=O)O)C(=O)O [Section GT1, Glutathione of reduced type]
Amount of Momilactone-A (rice plant “Nihonbare” [4]): not detected | Amount of Sakuranetin (rice plant “Nihonbare” [4]): not detected

From patent publication US6492303B1, “Compositions for protecting a plant from a disease and using method thereof” (priority 1998, dated 2002)
